{
  "source": "patent US10525105B2",
  "about": "“Peptide for repairing cartilage and treating osteoarthritis” (Guangzhou Link Health Pharma Co., Ltd., priority 2016, dated 2020)",
  "key": {"mesenchymal stem cells": {"system": "mesenchymal stem cells", "assay": "Immunohistochemical detection of COL2A1 in mesenchymal stem cells", "assay_type": "cell-based, rat", "settings": "1 μM", "description": "(§1) The cells were re-suspended in a complete chondrogenic medium (purchased from Guangzhou Cyagen Biosicences Inc., Item No.: RASMX-90011) containing different concentrations of BM23 peptides (0.1 μM, 0.3 μM, and 1 μM), so that the concentration of BMSCs was 5.0×10^5 cells per ml. PBS was used as a negative control, and 1 μM human insulin growth factor (IGF-1, purchased from Beijing Yiqiao Shenzhou Biotechnology Co., Ltd.) was used as a positive control.\nThe treated BMSCs were incubated at 37° C. under 5% CO2 saturated humidity. The medium was changed every 2-3 days, and 0.5 mL of fresh complete chondrogenic medium was added to each tube.\nGenerally, samples can be collected after 28 days of continuous induction; and cartilage balls can be subjected to formalin fixation, paraffin embedding, sectioning and alcian blue staining.\nParaffin Embedding of Tissues:\nThe specimens were fixed with 4% paraformaldehyde for 24-36 hours.\nThe specimens were taken out and washed to remove the fixative, and a material with a suitable size (about 0.2 cm in thickness) was cut for embedding.\nThe specimens were respectively treated once with 70%, 80%, 90% and 95% ethanol, and 60 minutes are for each treatment. The specimens were treated twice with 100% ethanol, and 50 minutes are for each time.\nThe specimens were treated once with ½xylene-½ absolute ethanol for 15 minutes. […]"}, "in vivo": {"assay": "in vivo", "parameters": "species or system New Zealand rabbits", "settings": "New Zealand, rabbit, iv, 0.5 mg/kg", "protocol": "LC/MSMS methodology was established, Finnigan TSQ Discovery Max LC/MS was equipped with Surveyor HPLC system. The detection limit was 1-1000 ng/ml, and the recovery rate was over 80%. Six New Zealand rabbits were randomly divided into two groups (three rabbits in each group). […] The blood concentration was measured by LC/MSMS method, 100 μl of blood plasma was taken, 500 μl of a mixed solvent containing IS 2000 ng/ml of acetonitrile and methanol solution at a ratio of 70:30 was added, shaken, and centrifuged at 12000 rpm for 10 minutes. 20 μl of supernatant was injected for LC/MSMS analysis. The main pharmacokinetic parameters were calculated by using 3P97 pharmacokinetic software."}, "chondrocytes [1]": {"system": "chondrocytes", "assay": "Immunohistochemical detection of COL2A1 in chondrocytes", "assay_type": "cell-based, New Zealand white rabbit", "settings": "1 μM, 5 days", "description": "The articular cartilage of New Zealand white rabbit aged 2 months old was cut under sterile conditions, and cut into a size of 1 mm. The articular cartilage was digested at 37° C. according to the following procedure: (1) digested with 2 mg/ml hyaluronidase for 45 minutes; (2) digested with 2 mg/ml trypsin for 45 minutes; and (3) digested with 4 mg/ml type II collagenase for 3 hours, washed, and then centrifuged (1500 r/min) for 5 minutes; and the precipitate was cultured in a DMEM medium containing 15% fetal bovine serum. Immunohistochemical Detection of COL2A1 Chondrocytes were inoculated at 3.5×10^5 cells/ml in a 6-well culture plate with coverslips, and different concentrations of BM23 peptides were added; PBS was set as a negative control group, and IGF-1 was set as a positive control group. The 6-well culture plate was placed in a 5% CO2 saturated water-vapor carbon dioxide incubator for a culture at 37° C. for 5 days. Immunohistochemical staining was performed as in Embodiment 3."}, "[2]": {"system": "knee articular cartilage defect", "assay": "Rabbit cartilage repair model", "assay_type": "in vivo, New Zealand rabbits", "settings": "for general observation score: 90 days after first administration, 0-4 point scale; for histopathological scores of articular cartilage: 90 days, ICRS pathological scoring, grade 0-6, six rabbits", "description": "Animals: New Zealand rabbits, 2 months old, half male and half female\nConstruction of models: New Zealand rabbits were anesthetized with 6% pentobarbital sodium (0.7 mL/kg) via marginal ear veins. After anesthesia, a longitudinal incision having a length of about 3 cm was made on the medial side of the knee joint of the left hind leg; the skin, subcutaneous tissue and joint capsule were cut successively to maintain the integrity of the patellar ligament; and the patella was turned outward to expose the femoral condyle. When the knee joint flexes 90°, an articular cartilage defect with a diameter of 4.2 mm and a depth of 3 mm was drilled in the femur and the middle of lateral intercondylar articular surfaces corresponding to the patella by using a drill bit with a diameter of 4.2 mm (according to visible bleeding on subchondral bone). The defect was washed with normal saline without any other treatment. […] After the patella is reset, the muscle and skin incisions are sequentially sutured. After the operation, immediately, the animals were intramuscularly injected with penicillin sodium once a day for 3 consecutive days to prevent infection.\nAdministration: the New Zealand rabbits with knee articular cartilage defects were divided into four groups: negative control group, low-dose group (1 mg/rabbit), medium-dose group (3 mg/rabbit) and high-dose group (10 mg/rabbit), 12 rabbits in each group, half male and half female in each group. On the 6th day after constructing the models, each group of rabbits was administered intra-articularly. Namely, 1 mg/rabbit, 3 mg/rabbit and 10 mg/rabbit were administered to the test rabbits, respectively, and the administration volume was 0.2 ml.\nSacrifice and observation: at 90 days after the first administration, 6 rabbits (half male and half female) were selected from each group and sacrificed, and the repair situation of the knee articular cartilage in each rabbit was observed by dissection.\n(1) General observation: during necropsy, the articular cavity was opened, the patella articular surface was exposed, and the repair of the filling edge of the defect, the flatness of the cartilage surface, the color of the new cartilage, etc., were observed.\nSubsequently, scoring was performed according to the following criteria:\n0 point: the articular surface is smooth and the color is normal;\n1 point: the articular surface is rough, with small fissures and dark color;\n2 points: the cartilage defect has reached the middle layer of cartilage;\n3 points: the articular surface ulcer is formed, and the cartilage defect has reached the deep layer of cartilage; and\n4 points: the cartilage is exfoliated, and subchondral bones are exposed.\n(2) Histological pathological observation: observation was performed under light microscope, and scoring was performed according to the ICRS pathological scoring standard:\nGrade 0: the cartilage surface is flat and the cartilage is intact;\nGrade 1: the superficial fibers are formed in the cartilage surface and are uneven;\nGrade 2: the cartilage surface is discontinuous, accompanied by cell proliferation; and metachromatic materials are increased or decreased in the II-III layers;\nGrade 3: cartilage rhagadia has reached the III layer or erosion occurs;\nGrade 4: the erosion of the cartilage is aggravated, and the articular cartilage is damaged;\nGrade 5: the articular cartilage is exfoliated; and\nGrade 6: the joint is deformed.\nAfter the rabbits were sacrificed by anesthesia and exsanguination, the articular cartilage tissue was exfoliated and fixed with 10% neutral formalin, followed by dehydration, conventional paraffin embedding, sectioning, HE staining and mounting, and detection was performed by light microscopy."}, "chondrocytes [3]": {"system": "chondrocytes", "assay": "Proliferation of chondrocytes by MTS assay", "assay_type": "cell-based, New Zealand white rabbit", "settings": "5 days of treatment, OD 570 nm, BM23 peptide 0.1, 0.3, 1 μM, IGF-1 1 μM", "description": "The articular cartilage of New Zealand white rabbit aged 2 months old was cut under sterile conditions, and cut into a size of 1 mm. The articular cartilage was digested at 37° C. according to the following procedure: (1) digested with 2 mg/ml hyaluronidase for 45 minutes; (2) digested with 2 mg/ml trypsin for 45 minutes; and (3) digested with 4 mg/ml type II collagenase for 3 hours, washed, and then centrifuged (1500 r/min) for 5 minutes; and the precipitate was cultured in a DMEM medium containing 15% fetal bovine serum. […] Detection of the Proliferation of Chondrocytes by MTS Assay Chondrocytes were inoculated in a 96-well plate at 2×10^4 cells/well, and different concentrations of BM23 peptides (0.1 μM, 0.3 μM, and 1 μM) were added; PBS was set as a negative control group, and IGF-1 (1 μM) was set as a positive control group. The 96-well plate was placed in a 5% CO2 saturated water-vapor carbon dioxide incubator for a culture at 37° C. for 5 days. 20 μl of MTS mixture was added to each well, and the culture was continued for 3-4 hours for coloration. Before testing, the culture plate was shaken for 10 seconds to uniformly mix colors. The optical density (OD) of each well was measured at a wavelength of 570 nm on an enzyme-linked immunometric meter."}, "[4]": {"system": "rat bone marrow mesenchymal stem cells (BMSCs)", "assay": "Chondrogenic induction of BMSCs, quantitative PCR of COL2A1 and ACAN mRNA", "assay_type": "cell-based", "settings": "rat BMSCs in chondrogenic medium", "description": "Three SD rats aged 8 weeks were sacrificed by a dislocation method and disinfected with 70% ethanol for 5 minutes. The abdominal wall layers of the three SD rats were then cut with scissors, an incision of each SD rat was pulled to a femur, and muscles on the femur were carefully separated.\nA middle of the femur was cut off, and a bone marrow cavity was repeatedly washed by a low-sugar DMEM medium (containing 1 mL/L of heparin) sucked with a syringe to flush out bone marrow.\nThe bone marrow was repeatedly washed with the syringe, and prepared into a single cell suspension by successively passing through needle No. 7 and needle No. 4.\nThe single cell suspension was centrifuged (1500 r/min, 10 min), and a supernatant was discarded; DMEM-F12 complete medium containing 10% FBS was added, and then an inoculation was performed in a culture flask at a density of 10^7 cells/mL, and the culture flask was placed in an incubator having 5% CO2 at 37° C. for a culture.\nThe cells were purified by a differential adherent culture. The culture solution was changed 48 hours after the inoculation, and thereafter, the culture solution was changed every 3 days to remove non-adherent hematopoietic cells.\nAfter the cells grew to 80%-90%, a passage was performed. The culture solution was removed, and the cells were washed with PBS to remove residual serum; and the PBS was removed.\nA BMSCs digestive juice (containing 0.25% trypsin and 0.02% EDTA solution) was added for a slight shaking until the BMSCs digestive juice just covers the bottom of the culture flask; and a digestion time was about 5 minutes. Then, the passage was carried out.\nThe cells were transferred to a centrifuge tube, centrifuged at 1500 r/min for 10 minutes; a supernatant was removed; and a complete culture medium of mesenchymal stem cells was added for re-suspending the cells.\nThe BM23 peptide was dissolved in phosphate buffered saline (PBS).\nas §1\nThe treated BMSCs were incubated at 37° C. under 5% CO2 saturated humidity. The medium was changed every 2-3 days, and 0.5 mL of fresh complete chondrogenic medium was added to each tube. […]\nQuantitative PCR Detection […]\nQuantitative PCR was performed using cDNA as a template and the following primers: • (1) rat COL2A1-F1: 5′ […] […]"}, "[5]": {"settings": "high-dose group 10 mg/rabbit intra-articular"}, "[6]": {"settings": "low-dose group 1 mg/rabbit intra-articular"}, "[7]": {"settings": "medium-dose group 3 mg/rabbit intra-articular"}},
  "note": "Peptide text beside a SMILES is read from it.",
  "data": [
    {"molecule": "CC[C@H](C)[C@H](NC(=O)[C@H](CCCNC(=N)N)NC(=O)[C@H](Cc1c[nH]cn1)NC(=O)[C@H](CCCCNC(=N)N)NC(=O)[C@H](CC(N)=O)NC(=O)[C@H](CCCNC(=N)N)NC(=O)[C@H](Cc1c[nH]cn1)NC(=O)[C@H](CCCCN)NC(=O)[C@H](CC(C)C)NC(=O)[C@H](N)CCC(N)=O)C(=O)N[C@@H](CCCCN)C(=O)N[C@H](C(=O)NCC(=O)N[C@@H](CO)C(=O)N[C@H](C(=O)N[C@@H](CC(N)=O)C(=O)N[C@@H](Cc1c[nH]cn1)C(=O)NCC(=O)N[C@@H](CC(C)C)C(=O)N[C@H](C(=O)N[C@@H](CCC(N)=O)C(=O)N[C@@H](CO)C(=O)N[C@@H](CC(C)C)C(N)=O)C(C)C)[C@@H](C)O)[C@@H](C)O", "note": "[BM23 peptide] (HELM PEPTIDE1{[dQ].L.K.H.R.N.[N=C(N)NCCCC[C@H](N[*:1])C(=O)[*:2]].H.R.I.K.T.G.S.T.N.H.G.L.V.Q.S.L.[am]}$$$$V2.0; N-terminus assumed)", "values": [
      {"measurement": "expression level of COL2A1 protein (immunohistochemical staining) vs PBS treatment group", "setting": "mesenchymal stem cells", "result": "significantly increased"},
      {"measurement": "half-life", "setting": "in vivo", "result": "123 ± 38", "unit": "min"},
      {"measurement": "expression level of COL2A1 protein (immunohistochemical staining) vs PBS treatment group", "setting": "chondrocytes [1]", "result": "significantly increased"},
      {"measurement": "general observation score", "setting": "[2]; [5]", "result": 2.1, "unit": "points"},
      {"measurement": "histopathological scores of articular cartilage", "setting": "[2]; [5]", "result": 2.1, "unit": "points"},
      {"measurement": "general observation score", "setting": "[2]; [6]", "result": 3.7, "unit": "points"},
      {"measurement": "histopathological scores of articular cartilage", "setting": "[2]; [6]", "result": 3.7, "unit": "points"},
      {"measurement": "general observation score", "setting": "[2]; [7]", "result": 3.0, "unit": "points"},
      {"measurement": "histopathological scores of articular cartilage", "setting": "[2]; [7]", "result": 3.0, "unit": "points"},
      {"measurement": "proliferation of chondrocytes compared with the PBS group", "setting": "chondrocytes [3]", "result": "significantly promoted"},
      {"measurement": "mRNA expression level of ACAN compared with PBS treatment", "setting": "[4]; 0.1 μM", "result": "no significant effect"},
      {"measurement": "mRNA expression level of COL2A1 compared with PBS treatment", "setting": "[4]; 0.1 μM", "result": "no significant effect"},
      {"measurement": "mRNA expression level of ACAN compared with PBS treatment", "setting": "[4]; 0.3 μM", "result": "significantly different"},
      {"measurement": "mRNA expression level of ACAN compared with PBS treatment", "setting": "[4]; 1 μM", "result": "significantly different"}
    ]},
    {"molecule": "positive control: human insulin growth factor (IGF-1), used at 1 μM as positive control", "values": [
      {"measurement": "proliferation of chondrocytes compared with the PBS group", "setting": "chondrocytes [3]", "result": "significantly promoted"}
    ]}
  ]
}
